The structures appear in SMILES notation.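 Exposure lasted 48 hours, with cells grown in 96-well plates and compounds tested at five concentrations. At the GI50, growth is halved.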 The source made the active and inactive calls. No stated cut-off is given here; in the data, active = GI50 up to about 1.1 µM and inactive = higher. Some results are limits rather than exact numbers.

Some test systems named below: NCI-H23; T47D; NCI-H226; MDA-MB-435; A498; UACC-62; NCI-H460; HT-29; MCF7; HCT-116; HOP-62; M14; SNB-75; SF-295; UACC-257; SK-OV-3; OVCAR-8; HCT-15; OVCAR-5.
Common to all, as to assay: inhibition of tumour cell growth, NCI panel, 48 h

With `C=CCn1c(S)nnc1C12CC3CC(CC(C3)C1)C2`, the GI50 in the experiment on NCI-H23 is 94.4 µM (inactive); with T47D, 32.8 µM (inactive); in the experiment on NCI-H226, > 100 µM (inactive); with MDA-MB-435, 48.9 µM (inactive); in the experiment with A498, > 100 µM (inactive); in the experiment with UACC-62 it was 90.8 µM (inactive). In addition, the GI50 in the experiment on NCI-H460 was 53.5 µM (inactive); in the experiment on HT-29, 50.1 µM (inactive); in the experiment with MCF7 it was 42.9 µM (inactive); in the experiment with HCT-116 it was 46.1 µM (inactive); with HOP-62 it was > 100 µM (inactive); with M14, 61 µM (inactive). Further, the GI50 in the experiment with SNB-75 is > 100 µM (inactive); with SF-295, 41.3 µM (inactive); with UACC-257, 52.2 µM (inactive); in the experiment on SK-OV-3, > 100 µM (inactive); in the experiment on OVCAR-8 it was 92.9 µM (inactive); with HCT-15, 44.3 µM. For the same compound, the GI50 in the experiment with OVCAR-5 was > 100 µM (inactive).

Regarding `CC1OC(OC2C(O[C@H]3CC[C@@]4(C)C(=CC[C@H]5[C@@H]6C[C@@H]7O[C@]8(CC[C@@H](C)CO8)[C@@H](C)[C@@H]7[C@@]6(C)CC[C@@H]54)C3)OC(CO)C(O)C2OC2OC(CO)C(O)C(O)C2O)C(O)C(O)C1O` (stereo not given in full), the GI50 in the experiment with NCI-H23 is 1.89 µM (inactive); in the experiment with T47D it was 2.31 µM (inactive); in the experiment on NCI-H226, 2 µM (inactive); in the experiment on MDA-MB-435, 1.81 µM (inactive); in the experiment on A498 it was 1.44 µM (inactive); in the experiment on UACC-62 it was 2.33 µM (inactive). Also, the GI50 in the experiment with NCI-H460 is 2.22 µM (inactive); in the experiment on HT-29 it was 14.7 µM (inactive); in the experiment on MCF7 it was 2.19 µM (inactive); in the experiment with HCT-116, 2.58 µM (inactive); with HOP-62, 2.22 µM (inactive); in the experiment with M14, 2.35 µM (inactive). The GI50 with SNB-75 was 2.04 µM (inactive); with SF-295, 2.14 µM (inactive); with UACC-257, 1.86 µM (inactive); with SK-OV-3, 1.8 µM (inactive); in the experiment on OVCAR-8, 3.19 µM (inactive); in the experiment on HCT-15, 1.95 µM. Besides, the GI50 in the experiment with OVCAR-5 is 13 µM (inactive).

As to `O[C@@H]1C[C@@H]2N[C@@](O)(C[C@@H]2O)[C@H]1O`, the GI50 in the experiment on NCI-H23, with T47D, in the experiment on NCI-H226, with MDA-MB-435, with A498 and in the experiment with UACC-62 was > 100 µM (inactive) throughout. For the same compound, the GI50 in the experiment on NCI-H460, in the experiment on HT-29, in the experiment on MCF7, in the experiment with HCT-116, in the experiment with HOP-62 and in the experiment with M14 was > 100 µM (inactive) throughout. For the same compound, the GI50 was 84.3 µM (inactive) in the experiment on SNB-75; > 100 µM (inactive) in the experiment with SF-295; > 100 µM (inactive) with UACC-257; > 100 µM (inactive) in the experiment on SK-OV-3; > 100 µM (inactive) in the experiment with OVCAR-8; above 100 µM with HCT-15. Besides, the GI50 in the experiment with OVCAR-5 was > 100 µM (inactive).

Turning to `CCCCn1c(C)c(C(=O)OCC)s/c1=N/Nc1nc2ccccc2nc1-c1ccccc1`, the GI50 in the experiment on NCI-H23 is 92.9 µM (inactive); in the experiment with T47D, 52.1 µM (inactive); with NCI-H226, 78.5 µM (inactive); in the experiment with MDA-MB-435 it was > 100 µM (inactive); in the experiment on A498 it was 58.5 µM (inactive); in the experiment on UACC-62 it was > 100 µM (inactive). Further, the GI50 with NCI-H460 is > 100 µM (inactive); with HT-29, > 100 µM (inactive); with MCF7 it was 82.4 µM (inactive); with HCT-116 it was > 100 µM (inactive); with HOP-62, 30.8 µM (inactive); in the experiment with M14, > 100 µM (inactive). Also, the GI50 with SNB-75 was > 100 µM (inactive); in the experiment with SF-295 it was 43.3 µM (inactive); in the experiment on UACC-257, > 100 µM (inactive); with SK-OV-3, 53.3 µM (inactive); with OVCAR-8, 56.2 µM (inactive); with HCT-15, above 100 µM. Further, in the experiment with OVCAR-5, the GI50 is > 100 µM (inactive).

On to `O=C1CCCCCCCCCCC1CCCCCBr` (stereo not given), for which the GI50 is 24.4 µM (inactive) in the experiment on NCI-H23; 24.2 µM (inactive) in the experiment with T47D; 20.8 µM (inactive) with NCI-H226; 40.8 µM (inactive) in the experiment with MDA-MB-435; 14.4 µM (inactive) with A498; 31.1 µM (inactive) in the experiment on UACC-62. Moreover, the GI50 in the experiment on NCI-H460 is 36.6 µM (inactive); in the experiment on HT-29, 25.9 µM (inactive); in the experiment with MCF7, 37 µM (inactive); with HCT-116 it was 17 µM (inactive); in the experiment on HOP-62, 29.2 µM (inactive); in the experiment with M14 it was 33 µM (inactive). The GI50 is 16.3 µM (inactive) in the experiment on SNB-75; 34.4 µM (inactive) in the experiment with SF-295; 21.3 µM (inactive) in the experiment with UACC-257; 57.9 µM (inactive) with SK-OV-3; 31.8 µM (inactive) in the experiment with OVCAR-8; 24.3 µM in the experiment with HCT-15. In addition, the GI50 in the experiment with OVCAR-5 was 25.1 µM (inactive).

Take `N#CC1(C#N)C2(c3ccccc3)OC(c3ccccc3)(c3cc4ccccc4cc32)C1(C#N)C#N`: the GI50 with NCI-H23 is 11.9 µM (inactive); in the experiment on T47D it was 13.6 µM (inactive); in the experiment on NCI-H226, 12.6 µM (inactive); with MDA-MB-435 it was 17.1 µM (inactive); with A498 it was 19.5 µM (inactive); in the experiment on UACC-62, 17.7 µM (inactive). For the same compound, the GI50 was 18 µM (inactive) with NCI-H460; 14.8 µM (inactive) in the experiment with HT-29; 5.38 µM (inactive) with MCF7; 7.03 µM (inactive) in the experiment with HCT-116; 20.7 µM (inactive) in the experiment with HOP-62; 10.6 µM (inactive) in the experiment with M14. Besides, the GI50 in the experiment with SNB-75 was 13 µM (inactive); with SF-295, 15.8 µM (inactive); in the experiment with UACC-257 it was 27.5 µM (inactive); with SK-OV-3 it was 21.1 µM (inactive); in the experiment on OVCAR-8, 8.3 µM (inactive); with HCT-15, 12.2 µM. Besides, in the experiment with OVCAR-5, the GI50 is 15.8 µM (inactive).

Consider `N/N=C1\C(OC(=O)Nc2ccccc2)=Nc2ccccc21`, for which the GI50 with NCI-H23 is 15.1 µM (inactive); with T47D, 10.9 µM (inactive); in the experiment with NCI-H226, 16.8 µM (inactive); with MDA-MB-435, 14.4 µM (inactive); with A498 it was 17.1 µM (inactive); in the experiment on UACC-62 it was 14.8 µM (inactive). The GI50 was 10.9 µM (inactive) in the experiment on NCI-H460; 30.5 µM (inactive) in the experiment with HT-29; 9.93 µM (inactive) in the experiment on MCF7; 14.2 µM (inactive) in the experiment with HCT-116; 18.6 µM (inactive) with HOP-62; 13.4 µM (inactive) in the experiment with M14. Also, the GI50 with SNB-75 was 22.8 µM (inactive); in the experiment on SF-295 it was 14 µM (inactive); with UACC-257 it was 29.7 µM (inactive); in the experiment with SK-OV-3, 19.8 µM (inactive); in the experiment with OVCAR-8 it was 12.1 µM (inactive); with HCT-15 it was 26.5 µM. Further, the GI50 with OVCAR-5 is 45.1 µM (inactive).

`CCN1CCC(O)(c2ccc(Oc3ccc(Cl)cc3)cc2)C(C(=O)c2ccc(Oc3ccc(Cl)cc3)cc2)C1` (stereo not given): the GI50 is 11.7 µM (inactive) with NCI-H23; 14.7 µM (inactive) in the experiment with T47D; 15 µM (inactive) in the experiment with NCI-H226; 16.4 µM (inactive) in the experiment on MDA-MB-435; 8.61 µM (inactive) with A498; 12.2 µM (inactive) with UACC-62. In addition, the GI50 was 3.76 µM (inactive) in the experiment with NCI-H460; 5.07 µM (inactive) in the experiment on HT-29; 5.41 µM (inactive) in the experiment on MCF7; 3.78 µM (inactive) in the experiment with HCT-116; 9.48 µM (inactive) with HOP-62; 14 µM (inactive) in the experiment with M14. Also, the GI50 in the experiment with SNB-75 is 12.9 µM (inactive); in the experiment on SF-295, 12.4 µM (inactive); in the experiment with UACC-257 it was 13.3 µM (inactive); in the experiment with SK-OV-3, 23.3 µM (inactive); in the experiment on OVCAR-8 it was 17.1 µM (inactive); in the experiment on HCT-15, 7.35 µM. Besides, in the experiment on OVCAR-5, the GI50 was 13.5 µM (inactive).

For `O=[N+]([O-])C(=C1NCCN1)/C(Cl)=C(\Cl)Br`, the GI50 is > 49.8 µM (inactive) with NCI-H23; 17.5 µM (inactive) in the experiment on T47D; > 81.8 µM (inactive) in the experiment with NCI-H226; 29.4 µM (inactive) in the experiment with MDA-MB-435; > 44.9 µM (inactive) in the experiment on A498; 43.1 µM (inactive) in the experiment with UACC-62. Further, the GI50 in the experiment on NCI-H460 is 51.6 µM (inactive); with HT-29 it was 30.1 µM (inactive); with MCF7 it was 30.3 µM (inactive); in the experiment on HCT-116, 28.8 µM (inactive); with HOP-62, > 100 µM (inactive); with M14 it was 38.3 µM (inactive). The GI50 in the experiment with SNB-75 was 27.2 µM (inactive); in the experiment on SF-295, > 100 µM (inactive); in the experiment with UACC-257, > 49.8 µM (inactive); in the experiment with SK-OV-3, > 100 µM (inactive); with OVCAR-8 it was 40.3 µM (inactive); in the experiment with HCT-15 it was 4.98 µM. In the experiment with OVCAR-5, the GI50 was > 100 µM (inactive).

`CC1=CC(=O)/C(=C/n2c(=S)[nH]c3ccccc32)C(=O)O1`: the GI50 with NCI-H23, with T47D, in the experiment on NCI-H226, with MDA-MB-435, in the experiment with A498 and with UACC-62 was > 100 µM (inactive) each time. Moreover, the GI50 in the experiment with NCI-H460, with HT-29, in the experiment on MCF7, with HCT-116, in the experiment with HOP-62 and in the experiment on M14 was > 100 µM (inactive) throughout. Besides, the GI50 in the experiment with SNB-75 was 35.7 µM (inactive); with SF-295, > 100 µM (inactive); in the experiment with UACC-257, > 100 µM (inactive); in the experiment on SK-OV-3, > 100 µM (inactive); in the experiment with OVCAR-8, > 100 µM (inactive); in the experiment with HCT-15 it was above 100 µM. Moreover, the GI50 with OVCAR-5 was > 100 µM (inactive).

These data come from ChEMBL document CHEMBL1201862, “PubChem BioAssay data set” (2004).
